For twelve molecules, viability and activity results are on record in patent publication US9949980B2, “Drugs to prevent HPV infection” (Wisconsin Alumni Research Foundation, priority 2008, dated 2018).

One data set is described as follows: in vitro. The settings on record: human, Viability (CelTiter Glow). As for the experimental part: (§1) FIG. 1. High throughout screen (HTS) for identifying inhibitors of HPV infection. Shown is a schematic showing basic steps in the HTS. […] Briefly, HPV16 pseudoviruses containing the SEAP reporter genes are analyzed for their ability to infect as judged by the levels of secreted alkaline phosphatase in the tissue culture supernatant (light grey arrows). Cell viability was assessed in parallel on the same wells (dark grey arrows). In the specific HTS carried out in this study, the compounds were added at 3 uM/1% DMSO final concentration (black arrow) 4 hours prior to infection.
(§2) After incubation at 37° C. for 24 hrs, 35 μL of media was removed. […] Cells were incubated at 37° C. for 48 hrs. 2.5 μL of media was collected for SEAP assay using a PHOSPHA-LIGHT chemiluminescent alkaline phosphatase assay (Applied Biosystems). Cell viability was determined using the CellTiter Glo Luminescent Cell Viability Assay™ (Promega).

The next data set concerns HPV16 pseudoviruses. In words: microbe, parasite or virus in culture. The data set is classed as cell-based. The settings on record: Human papillomavirus 16, HEK-293T, 48 h. The procedure: as §1, §2
Setting [1] is: read-out: Infectivity (SEAP Activity), 3 μM HTS standard concentration, 293T cells, 48 hrs.
The mark [2] stands for this setting: read-out: Infectivity vs. viability, 3 μM HTS standard concentration, ratio infectivity/viability.

Read-outs that look alike come from different tables or passages of the source.

As to `COc1cc(NC(=O)C=Cc2ccc(OC)c(Br)c2)c(OC)cc1Cl` [Compound 5944623, 3-(3-bromo-4-methoxyphenyl)-N-(4-chloro-2,5-dimethoxyphenyl)acrylamide], in the data set “in vitro”, the viability at 52 h, 3 μM is 98.5%. Further, the activity at 3 µM was found to be 48.8% in the data set on HPV16 pseudoviruses (setting [1]) and 49.5% in the data set on HPV16 pseudoviruses (setting [2]).

For `Cc1ccc2nc3nc(C)cc(C)c3c(N)c2c1` [Compound 5947488, 2,4,7-trimethylbenzo[b]-1,8-naphthyridin-5-amine], the viability at 52 h, 3 μM in “in vitro” amounted to 68%. Moreover, the activity at 3 µM worked out at 34.6% in the data set on HPV16 pseudoviruses (setting [1]) and 51% in the data set on HPV16 pseudoviruses (setting [2]).

`Cc1ccc2cc(C3CC(c4ccc(Br)cc4)=NN3C(=O)CCC(=O)O)c(=O)[nH]c2c1` (stereo not drawn) [Compound 5976736, 4-[3-(4-bromophenyl)-5-(7-methyl-2-oxo-1,2-dihydro-3-quinolinyl)-4,5-dihydro-1H-pyrazol-1-yl]-4-oxobutanoic acid]: the viability at 52 h, 3 μM in “in vitro” turned out to be 105%. Moreover, the activity at 3 µM in the data set on HPV16 pseudoviruses (setting [1]) was determined as 42.2%; in the data set with HPV16 pseudoviruses (setting [2]), 40.2%.

For the molecule `Cc1ccc(CN2CCN(S(C)(=O)=O)CC2)cc1` [Compound 5994189, 1-(4-methylbenzyl)-4-(methylsulfonyl)piperazine], in “in vitro”, the viability at 52 h, 3 μM worked out at 109%. Besides, the values for the activity at 3 µM in the data set with HPV16 pseudoviruses (setting [1]) and in the data set on HPV16 pseudoviruses (setting [2]) were 39.8% and 36.5%, respectively.

As to `Cc1nc2ccccc2c(=O)n1N=Cc1c(O)ccc2ccccc12` [Compound 6001901, 3-{[(2-hydroxy-1-naphthyl)methylene]amino}-2-methyl-4(3H)-quinazolinone], in the data set “in vitro”, the viability at 52 h, 3 μM is 110%. Moreover, the results for the activity at 3 µM with HPV16 pseudoviruses (setting [1]) and in the data set with HPV16 pseudoviruses (setting [2]) were 65.8% and 60%, respectively.

In the case of `Cc1cc(OCC(=O)Nc2ccc(N3CCOCC3)c(Cl)c2)cc(C)c1Cl` [Compound 6013775, 2-(4-chloro-3,5-dimethylphenoxy)-N-[3-chloro-4-(4-morpholinyl)phenyl]acetamide], the viability at 52 h, 3 μM in “in vitro” was 105%. In addition, the figures for the activity at 3 µM in the data set with HPV16 pseudoviruses (setting [1]) and with HPV16 pseudoviruses (setting [2]) were 58.8% and 56%, respectively.

On to `Cc1cc(Cl)ccc1OCC(=O)Nc1ccc(Br)c(NC(=O)c2ccccc2)c1` [Compound 6016344, N-(2-bromo-5-{[(4-chloro-2-methylphenoxy)acetyl]amino}phenyl)benzamide], for which the viability at 52 h, 3 μM in “in vitro” was determined as 94.6%. Also, the values for the activity at 3 µM with HPV16 pseudoviruses (setting [1]) and in the data set on HPV16 pseudoviruses (setting [2]) were 51.4% and 54.4%, respectively.

On to `CCOc1ccc(C(=O)Nc2ccc3oc(-c4ccccc4F)nc3c2)cc1Cl` [Compound 6021315, 3-chloro-4-ethoxy-N-[2-(2-fluorophenyl)-1,3-benzoxazol-5-yl]benzamide], for which the viability at 52 h, 3 μM in “in vitro” came out at 96.3%. For the same molecule, the values for the activity at 3 µM in the data set with HPV16 pseudoviruses (setting [1]) and in the data set with HPV16 pseudoviruses (setting [2]) were 47% and 48.8%, respectively.

Regarding `Cc1ccccc1C(=O)Nc1cccc(NC(=O)c2ccc(-c3ccc(Br)cc3)o2)c1` [Compound 6021688, 5-(4-bromophenyl)-N-{3-[(2-methylbenzoyl)amino]phenyl}-2-furamide], the viability at 52 h, 3 μM in “in vitro” turned out to be 104%. For the same molecule, the activity at 3 µM with HPV16 pseudoviruses (setting [1]) was 40.2%; in the data set on HPV16 pseudoviruses (setting [2]), 38.7%.

For `O=[N+]([O-])c1cc(-n2ncnc2-c2ccc3c(c2)OCO3)ccc1F` [Compound 6033199, 5-(1,3-benzodioxol-5-yl)-1-(4-fluoro-3-nitrophenyl)-1H-1,2,4-triazole], the viability at 52 h, 3 μM in the data set “in vitro” worked out at 106%. Moreover, the activity at 3 µM with HPV16 pseudoviruses (setting [1]) is 50.6%; in the data set on HPV16 pseudoviruses (setting [2]), 47.9%.

Take `CC(c1ccccc1)c1nnc(NC(=O)Nc2ccc(Cl)cc2)s1` (stereo not drawn) [Compound 6040256, N-(4-chlorophenyl)-N′-[5-(1-phenylethyl)-1,3,4-thiadiazol-2-yl]urea]: the viability at 52 h, 3 μM in the data set “in vitro” amounted to 97.5%. The results for the activity at 3 µM in the data set with HPV16 pseudoviruses (setting [1]) and with HPV16 pseudoviruses (setting [2]) were 29.6% and 30.4%, respectively.

Turning to `O=C(Nc1ccccc1C(=O)N[C@@H](Cc1ccccc1)C(=O)O)c1ccccc1` [Compound 6058136, N-[2-(benzoylamino)benzoyl]phenylalanine], the viability at 52 h, 3 μM in the data set “in vitro” turned out to be 109%. Besides, the activity at 3 µM in the data set on HPV16 pseudoviruses (setting [1]) came out at 64.7%; in the data set with HPV16 pseudoviruses (setting [2]), 59.1%.

As a reminder, the viability is a read-out of living cells in per cent, often relative to untreated cells.
